We go through one substance from patent publication US20050267025A1, “Compositions and methods for treatment of infectious and inflammatory diseases” (priority 2002, published 2005).

This assay has as its system human monocytes. Type of assay: cell-based.

Consider polymyxin B [reference compound], for which the “effect on IL-10 promotion when added to yeast rCFP32 or CF from WT and mutant Mtb” value is “no effect”.
